Converted amounts (≈) assume the structure as drawn. Structures can show the parent of a compound that is named as a salt. Where two headings read alike, the source gives them in different places.
Key:
E. coli 266 = assay: In vitro MIC, E. coli 266, two-fold serial dilution; format: cell-based, Escherichia coli; details: unit assumed
Text: (§1) The in vitro spectra of a number of 6-[α-(ω-guanidinoalkanoylamido)acylamido]penicillanic acids of this invention against certain gram-negative bacteria are presented in Table I below. […] Th compounds of Table I have the formula

Pseudo. aeruginosa 104 = assay: In vitro MIC, Pseudo. aeruginosa 104; format: cell-based, Pseudomonas aeruginosa; details: unit assumed
Text: as §1

Pseudo. aeruginosa 173 = assay: In vitro MIC, Pseudo. aeruginosa 173; format: cell-based, Pseudomonas aeruginosa; details: unit assumed
Text: as §1

Pseudo. aeruginosa 490 = assay: In vitro MIC, Pseudo. aeruginosa 490; format: cell-based, Pseudomonas aeruginosa; details: unit assumed
Text: as §1

Proteus vulgaris A059 = assay: In vitro MIC, Proteus vulgaris A059; format: cell-based; details: unit assumed
Text: as §1

Proteus rettgeri B006 = assay: In vitro MIC, Proteus rettgeri B006; format: cell-based; details: unit assumed
Text: (§2) The in vitro activity of the herein-described compounds renders them useful for topical application in the form of ointments, creams and the like, or for sterilization purposes, e.g., sick room utensils.
as §1

Proteus mirabilis C015 = assay: In vitro MIC, Proteus mirabilis C015; format: cell-based; details: unit assumed
Text: as §1

Proteus mirabilis C020 = assay: In vitro MIC, Proteus mirabilis C020; format: cell-based; details: unit assumed
Text: as §2, §1

Serratia marcescens A001 = assay: In vitro MIC, Serratia marcescens A001; format: cell-based; details: unit assumed
Text: as §1

Escherichia coli 266 = assay: In vivo protection of mice versus Escherichia coli 266; details: Escherichia coli, 266, sc, 96 h, read-out: % Protection
Text: (§3) Additionally, the compounds of this invention are active versus gram-positive and gram-negative bacteria in vivo via the parenteral route of administration in animals, including man. Their in vivo activity in animals, including man, by the oral route of administration is more limited as regards susceptible organisms. Nevertheless, oral in vivo activity against Escherichia coli and Staphylococcus aureus is a common property of many compounds of this invention. Table II below presents the comparative in vivo spectra of several compounds within the scope of this invention against D-α-aminobenzylpenicillin (Ampicillin).
(§4) The acute systemic infections in mice were produced by the intraperitoneal inoculation of standardized cultures suspended in 5% hog gastric mucin. Treatment with the drugs was initiated 0.5 hours after inoculation of the infecting organism. A second dose was administered 4 hours later. The PD50 values were calculated after a hold period of 4 days.

E. coli = assay: PD50 versus acute systemic E. coli infection in mice; format: in vivo; details: for ED50: Escherichia coli, 96 h, E. coli, mice
Text: as §3, §4

S. aureus = assay: PD50 versus acute systemic S. aureus infection in mice; format: in vivo; details: for ED50: Staphylococcus aureus, 96 h, S. aureus, mice
Text: as §3, §4

P. aeruginosa = assay: PD50 versus acute systemic P. aeruginosa infection in mice; format: in vivo; details: for ED50: Pseudomonas aeruginosa, 96 h, read-out: PD50; for activity against Pseudomonas aeruginosa (in words): in vivo
Text: as §3, §4

[1] = Serum levels in dogs, single intramuscular dose; details: for Serum Levels: intramuscular 25 mg./kg.
[2] = Urine levels and urinary recovery in dogs, single intramuscular dose
[3] = 50 mg./kg., mice, subcutaneous route

CC1(C)S[C@@H]2[C@H](NC(=O)[C@H](NC(=O)CNC(=N)N)c3ccccc3)C(=O)N2[C@H]1C(=O)O [A, 6-[D-2-Phenyl-2-(Guanidinoacetamido)Acetamido]Penicillanic Acid]
MIC (E. coli 266): 1.56 µg/mL (≈ 3.48 µM) | MIC (Pseudo. aeruginosa 104): 1.56 µg/mL (≈ 3.48 µM) | MIC (Pseudo. aeruginosa 173): 1.56 µg/mL (≈ 3.48 µM) | MIC (Pseudo. aeruginosa 490): 1.56 µg/mL (≈ 3.48 µM) | MIC (Proteus vulgaris A059): 1.56 µg/mL (≈ 3.48 µM) | MIC (Proteus rettgeri B006): 12.5 µg/mL (≈ 27.9 µM) | MIC (Proteus mirabilis C015): 1.56 µg/mL (≈ 3.48 µM) | MIC (Proteus mirabilis C020): 1.56 µg/mL (≈ 3.48 µM) | MIC (Serratia marcescens A001): 6.25 µg/mL (≈ 13.9 µM) | responders at 50 mg/kg (Escherichia coli 266): 100% | ED50 (E. coli; oral): 50 mg/kg | ED50 (E. coli; sc, subcutaneous): 6 mg/kg | in vivo oral activity against E. coli (in words) (E. coli; oral): dual in vivo activity | ED50 (S. aureus; oral): 68 mg/kg | ED50 (S. aureus; sc, subcutaneous): 13 ± 3.9 mg/kg | in vivo oral activity against S. aureus (in words) (S. aureus; oral): dual in vivo activity | ED50 (P. aeruginosa; po): > 200 mg/kg | ED50 (P. aeruginosa; sc): 41 ± 13 mg/kg | activity against Pseudomonas aeruginosa (in words) (P. aeruginosa; mice): active | concentration at 1 h ([1]; dog, serum, im, 0.05 mg/kg): 78 µg/mL | concentration at 2 h ([1]; dog, serum, im, 0.05 mg/kg): 48 µg/mL | concentration at 0.5 h ([1]; dog, serum, im, 25 mg/kg): 30.4 µg/mL | concentration at 1 h ([1]; dog, serum, im, 25 mg/kg): 26.2 µg/mL | concentration at 2 h ([1]; dog, serum, im, 25 mg/kg): 10.3 µg/mL | concentration at 3 h ([1]; dog, serum, im, 25 mg/kg): 2.1 µg/mL | Serum Levels ([1]; dogs, 0 hours): 0 ng/mL | Serum Levels ([1]; dogs, 4 hours): 0 ng/mL | Serum Levels ([1]; dogs, 6 hours): 0 ng/mL | blood levels of drug compared with [B] (in words) ([1]; parenteral, dogs): clearly superior | concentration at 0.5 h ([2]; dog, urine, im, 25 mg/kg): 366 µg/mL | concentration at 1 h ([2]; dog, urine, im, 25 mg/kg): 710 µg/mL | concentration at 2 h ([2]; dog, urine, im, 25 mg/kg): 1020 µg/mL | concentration at 3 h ([2]; dog, urine, im, 25 mg/kg): 554 µg/mL | concentration at 4 h ([2]; dog, urine, im, 25 mg/kg): 219 µg/mL | concentration at 5 h ([2]; dog, urine, im, 25 mg/kg): 130 µg/mL | dose excreted ([2]; dog, urine, im, 25 mg/kg): 35.4% | Concentrations in Urine ([2]; dogs, intramuscular 25 mg./kg., 0 hours): 0 ng/mL | total urinary recovery of drug compared with [B] (in words) ([2]; parenteral, dogs): clearly superior

CN(CC(=O)N[C@@H](C(=O)N[C@@H]1C(=O)N2[C@@H]1SC(C)(C)[C@@H]2C(=O)OCOC(=O)C(C)(C)C)c1ccccc1)C(=N)N [CH2 N(CH3)--C(NH)NH2, R=POM, 6-{D-2-Phenyl-2-[(1-Methylguanidino)Acetamido]Acetamido}-Penicillanic Acid, Pivaloyloxymethyl Ester, Hydrochloride]
MIC (E. coli 266): 12.5 µg/mL | MIC (Pseudo. aeruginosa 490): 3.12 µg/mL | MIC (Proteus mirabilis C015): 12.5 µg/mL | responders at 50 mg/kg (Escherichia coli 266): 70%

CC1(C)S[C@@H]2[C@H](NC(=O)[C@H](N)c3ccccc3)C(=O)N2[C@H]1C(=O)O [D-α-aminobenzylpenicillin, reference compound]
MIC (E. coli 266): 3.1 µg/mL (≈ 8.87 µM) | MIC (Pseudo. aeruginosa 104): 200 µg/mL (≈ 572 µM) | MIC (Pseudo. aeruginosa 173): 200 µg/mL (≈ 572 µM) | MIC (Pseudo. aeruginosa 490): 0.78 µg/mL (≈ 2.23 µM) | MIC (Proteus vulgaris A059): 6 µg/mL (≈ 17.2 µM) | MIC (Proteus mirabilis C015): 1.5 µg/mL (≈ 4.29 µM) | MIC (Serratia marcescens A001): 200 µg/mL (≈ 572 µM) | responders at 50 mg/kg (Escherichia coli 266; [3]): 100% | ED50 (E. coli; oral): 25 ± 13 mg/kg | ED50 (E. coli; sc, subcutaneous): 27 ± 9 mg/kg | ED50 (S. aureus; oral): 2.5 ± 0.7 mg/kg | ED50 (S. aureus; sc, subcutaneous): 0.67 ± 0.4 mg/kg | ED50 (P. aeruginosa; P. aeruginosa, oral, mice): > 200 mg/kg | ED50 (P. aeruginosa; sc, P. aeruginosa, subcutaneous, mice): > 200 mg/kg | activity against Pseudomonas aeruginosa (in words) (P. aeruginosa; mice): inactive

CC1(C)S[C@@H]2[C@H](NC(=O)[C@H](NC(=O)Cc3ccc(NC(=N)N)cc3)c3ccccc3)C(=O)N2[C@H]1C(=O)O [NH--C(NH)NH2 [4th of 4], R=H]
MIC (E. coli 266): 6.25 µg/mL (≈ 11.9 µM) | MIC (Pseudo. aeruginosa 104): 6.25 µg/mL (≈ 11.9 µM) | MIC (Pseudo. aeruginosa 173): 3.12 µg/mL (≈ 5.95 µM) | MIC (Pseudo. aeruginosa 490): 1.56 µg/mL (≈ 2.97 µM) | MIC (Proteus vulgaris A059): 12.5 µg/mL (≈ 23.8 µM) | MIC (Proteus mirabilis C015): 12.5 µg/mL (≈ 23.8 µM) | MIC (Serratia marcescens A001): 25 µg/mL (≈ 47.7 µM) | responders at 50 mg/kg (Escherichia coli 266; [3]): 20%

CC1(C)S[C@@H]2[C@H](NC(=O)[C@H](NC(=O)c3cccc(NC(=N)N)c3)c3ccccc3)C(=O)N2[C@H]1C(=O)O [NH--C(NH)NH2 [2nd of 4], R=H]
MIC (E. coli 266): 3.12 µg/mL (≈ 6.11 µM) | MIC (Pseudo. aeruginosa 104): 1.56 µg/mL (≈ 3.06 µM) | MIC (Pseudo. aeruginosa 173): 1.56 µg/mL (≈ 3.06 µM) | MIC (Pseudo. aeruginosa 490): 0.78 µg/mL (≈ 1.53 µM) | MIC (Proteus vulgaris A059): 3.12 µg/mL (≈ 6.11 µM) | MIC (Proteus rettgeri B006): 12.5 µg/mL (≈ 24.5 µM) | MIC (Proteus mirabilis C015): 6.25 µg/mL (≈ 12.2 µM) | MIC (Proteus mirabilis C020): 25 µg/mL (≈ 49 µM) | MIC (Serratia marcescens A001): 12.5 µg/mL (≈ 24.5 µM) | responders at 50 mg/kg (Escherichia coli 266; [3]): 60%

CC1(C)S[C@@H]2[C@H](NC(=O)[C@H](NC(=O)C3CCCN(C(=N)N)C3)c3ccccc3)C(=O)N2[C@H]1C(=O)O (stereo partly shown) [C(NH)NH2, R=H]
MIC (E. coli 266): 6.25 µg/mL (≈ 12.4 µM) | MIC (Pseudo. aeruginosa 104): 12.5 µg/mL (≈ 24.9 µM) | MIC (Pseudo. aeruginosa 173): 6.25 µg/mL (≈ 12.4 µM) | MIC (Pseudo. aeruginosa 490): 1.56 µg/mL (≈ 3.1 µM) | MIC (Proteus vulgaris A059): 6.25 µg/mL (≈ 12.4 µM) | MIC (Proteus mirabilis C015): 3.12 µg/mL (≈ 6.21 µM) | MIC (Serratia marcescens A001): 6.25 µg/mL (≈ 12.4 µM) | responders at 50 mg/kg (Escherichia coli 266; [3]): 80%

CNC(=N)NCC(=O)N[C@@H](C(=O)N[C@@H]1C(=O)N2[C@@H]1SC(C)(C)[C@@H]2C(=O)O)c1ccccc1 [CH2 --NH--C(NH)NHCH3, R=H]
MIC (E. coli 266): 1.56 µg/mL (≈ 3.37 µM) | MIC (Pseudo. aeruginosa 104): 1.56 µg/mL (≈ 3.37 µM) | MIC (Pseudo. aeruginosa 173): 3.12 µg/mL (≈ 6.75 µM) | MIC (Pseudo. aeruginosa 490): 0.78 µg/mL (≈ 1.69 µM) | MIC (Proteus vulgaris A059): 3.12 µg/mL (≈ 6.75 µM) | MIC (Proteus mirabilis C015): 1.56 µg/mL (≈ 3.37 µM) | MIC (Serratia marcescens A001): 3.12 µg/mL (≈ 6.75 µM) | responders at 50 mg/kg (Escherichia coli 266): 100%

From patent US3972872A, “6-[α-(ω-Guanidinoalkanoylamido)acylamido]penicillanic acids” (Pfizer Inc., priority 1975, dated 1976)
